Assay results: patent publication US20190100549A1, “FLAVONOIDE-TYPE COMPOUNDS BEARING AN O-RHAMNOSYL RESIDUE” (Universitaet Hamburg, priority 2016, published 2019)
Where “and” joins values, the source holds several entries; their conditions need not be identical. Equal entries are not always repeated.

Experiments:
TNF-α = TNF-α release in stimulated NHEK (ELISA); assay type: cell-based, human; settings: poly(I:C)
Procedure: (§1) NHEK were pre-incubated for 24 h with the test compounds. The medium was replaced with the NHEK culture medium containing the inflammatory inducers (PMA or Poly I:C) and incubated for another 24 hours. Positive and negative controls ran in parallel. At the endpoint the culture supernatants were quantified of secreted IL-8, PGE2 and TNF-α by means of ELISA.

HaCaT cells = assay: Glucose uptake (2-NBDG) in HaCaT keratinocytes; assay type: cell-based; parameters: key to Measure 1 / Measure 2 / Measure 3 / Mean: total green object integrated intensity, GCU×μm2×Well; settings: +2NBDG 50 μM, 24 h; for Measure 1 / Measure 2 / Measure 3: HaCaT cells, fluorescence; for RFU specific: mean minus control; for Mean: mean of triplicate measurements; for % Glucose uptake: Rosiglitazone 80 μM = 100%
Procedure: HaCaT cells (5×10^4) were seeded in 96-well black plates and incubated for 24 h. Then, medium was removed and the cells cultivated in OptiMEM, labeled with 50 μM 2-NBDG (2-[N-(7-nitrobenz-2-oxa-1,3-diazol-4-yl) amino]-2-deoxy-D-glucose and treated with the test substances or the positive control, Rosiglitazone, for 24 h. Medium was removed and the wells were carefully washed with PBS and incubated in PBS (100l/well). Finally the fluorescence was measured using the Incucyte FLR software, the data were analyzed by the total green object integrated intensity (GCU×μm2×Well) of the imaging system IncuCyte HD (Essen BioScience). The fluorescence of Rosiglitazone is taken as 100% of glucose uptake, and the glucose uptake was calculated as (% Glucose uptake)=100(T−B)/(R−B), where T (treated) is the fluorescence of test substance-treated cells, B (Basal) is the fluorescence of 2-NBDG cells and […] is the fluorescence of cells treated with Rosiglitazone.

NF-κB = NF-κB activity in NIH3T3-KBF-Luc cells stimulated with TNFα (luciferase); assay type: cell-based; settings: for % Activation: TNFα alone = 100
Procedure: NIH3T3-KBF-Luc cells were stably transfected with the KBF-Luc plasmid (Sancho (2003) Mol Pharmacol 63:429-438), which contains three copies of NF-κB binding site (from major histocompatibility complex promoter), fused to a minimal simian virus 40 promoter driving the luciferase gene. Cells (1×10^4 for NIH3T3-KBF-Luc) were seeded the day before the assay on 96-well plate. Then the cells were treated with the test substances for 15 min and then stimulated with 30 ng/ml of TNFα. After 6 h, the cells were washed twice with PBS and lysed in 50 μl lysis buffer containing 25 mM Tris-phosphate (pH 7.8), 8 mM MgCl2, 1 mM DTT, 1% Triton X-100, and 7% glycerol during 15 min at RT in a horizontal shaker. Luciferase activity was measured using a GloMax 96 microplate luminometer (Promega) following the instructions of the luciferase assay kit (Promega, Madison, Wis., USA). […] The experiments for each concentration of the test items were done in triplicate wells.

IL-8 = IL-8 release in stimulated NHEK (ELISA); assay type: cell-based, human; settings: for inhibition at 100 µM: Homo sapiens, NHEK; for Cytokine [pg/mL] IL-8 Mean / IL-8 % stim. control / Cytokine [pg/mL] IL-8: 100 μM; for Cytokine [pg/mL] IL-8: single values
Procedure: as §1

[1] = system: normal human epidermal keratinocytes (NHEK); assay: Cytotoxicity on NHEK monolayer cultures (MTT reduction assay and morphological observation); assay type: cell-based; settings: for Viability (%): single values, listed as Hes-5-Rha
Procedure: To determine the cytotoxicity of flavonoid-5-O-α-L-rhamnosides tests were performed versus their aglycon derivatives in cell monolayer cultures. For this purpose concentrations ranging from 1 μM to 250 μM were chosen. The viability of normal human epidermal keratinocytes (NHEK) was twice evaluated by a MTT reduction assay and morphological observation with a microscope. NHEK were grown at 37° C. and 5% CO2 aeration in Keratinocyte-SFM medium supplemented with epidermal growth factor (EGF) at 0.25 ng/mL, pituitary extract (PE) at 25 μg/mL and gentamycin (25 μg/mL) for 24 h and were used at the 3rd passage. For cytotoxicity testing, pre-incubated NHEK were given fresh culture medium containing a specific concentration of test compound and incubated for 24 h. After a medium change at same test concentration cells were incubated a further 24 h until viability was determined. Test results are given in Table B2 and illustrated in FIG. 10.

PGE2 = PGE2 release in stimulated NHEK (ELISA); assay type: cell-based, human; settings: PMA 1 μg/ml, 100 μM
Procedure: as §1

procollagen I = assay: Procollagen I synthesis in NHDF (ELISA); assay type: cell-based, human; settings: 100 μM, 72 hours
Procedure: Tests were performed with normal human dermal fibroblast cultures at the 8th passage. Cells were grown in DMEM supplemented with glutamine at 2 mM, penicillin at 50 U/mL and streptomycin (50 μg/mL) and 10% of fetal calf serum (FCS) at 37° C. in a 5% CO2 atmosphere.
Fibroblasts were cultured for 24 hours before the cells were incubated with the test compounds for further 72 hours. After the incubation the culture supernatants were collected in order to measure the released quantities of procollagen I, VEGF, and fibronectin by means of ELISA. Reference test compounds were vitamin C (procollagen I), PMA (VEGF), and TGF-β (fibronectin).

COc1ccc(C2CC(=O)c3c(cc(O)cc3O[C@@H]3O[C@@H](C)[C@H](O)[C@@H](O)[C@H]3O)O2)cc1O (stereo partly drawn) [HESR1, Hesperetin-5-O-α-L-rhamnoside]
inhibition at 100 µM (TNF-α; Homo sapiens, NHEK, read-out: TNFα Inhibition %): 26%
Cytokine [pg/mL] TNFα Mean (TNF-α; 100 μM): 423 pg/mL
TNFα % stim. control (TNF-α; 100 μM): 75%
Cytokine [pg/mL] TNFα (TNF-α; 100 μM, single values): 416 pg/mL and 429 pg/mL
Measure 1 (HaCaT cells; 25 μM test substance): 756943
Measure 2 (HaCaT cells; 25 μM test substance): 549324
Measure 3 (HaCaT cells; 25 μM test substance): 384251
RFU specific (HaCaT cells; 25 μM test substance): 557192 RFU
Mean (HaCaT cells; 25 μM test substance): 563506
% Glucose uptake (HaCaT cells; 25 μM test substance): 64.1%
Measure 1 (HaCaT cells; 50 μM test substance): 501977
Measure 2 (HaCaT cells; 50 μM test substance): 642949
Measure 3 (HaCaT cells; 50 μM test substance): 529620
RFU specific (HaCaT cells; 50 μM test substance): 551868 RFU
Mean (HaCaT cells; 50 μM test substance): 558182
% Glucose uptake (HaCaT cells; 50 μM test substance): 63.5%
RLU 1 (NF-κB; 10 μM + 30 ng/ml TNFα): 186120 RLU
RLU 2 (NF-κB; 10 μM + 30 ng/ml TNFα): 181040 RLU
RLU 3 (NF-κB; 10 μM + 30 ng/ml TNFα): 182280 RLU
RLU MEAN (NF-κB; 10 μM + 30 ng/ml TNFα): 183147 RLU
RLU specific (NF-κB; 10 μM + 30 ng/ml TNFα): 145883 RLU
% Activation (NF-κB; 10 μM + 30 ng/ml TNFα): 178.4%
RLU 1 (NF-κB; 25 μM + 30 ng/ml TNFα): 218940 RLU
RLU 2 (NF-κB; 25 μM + 30 ng/ml TNFα): 216580 RLU
RLU 3 (NF-κB; 25 μM + 30 ng/ml TNFα): 213320 RLU
RLU MEAN (NF-κB; 25 μM + 30 ng/ml TNFα): 216280 RLU
RLU specific (NF-κB; 25 μM + 30 ng/ml TNFα): 179017 RLU
% Activation (NF-κB; 25 μM + 30 ng/ml TNFα): 218.9%
inhibition at 100 µM (IL-8; PMA): 34%
inhibition at 100 µM (IL-8; poly(I:C)): 24%
Cytokine [pg/mL] IL-8 Mean (IL-8; PMA): 2843 pg/mL
IL-8 % stim. control (IL-8; PMA): 98%
Cytokine [pg/mL] IL-8 (IL-8; PMA): 3242 pg/mL and 2445 pg/mL
Cytokine [pg/mL] IL-8 Mean (IL-8; poly(I:C)): 2793 pg/mL
IL-8 % stim. control (IL-8; poly(I:C)): 76%
Cytokine [pg/mL] IL-8 (IL-8; poly(I:C)): 2617 pg/mL and 2970 pg/mL
Viability (%) Mean ([1]; 1 μM): 97%
Viability (%) ([1]; 1 μM): 86% and 108%
Viability (%) Mean ([1]; 2.5 μM): 100%
Viability (%) ([1]; 2.5 μM): 87% and 113%
Viability (%) Mean ([1]; 5 μM): 88%
Viability (%) ([1]; 5 μM): 81% and 95%
Viability (%) Mean ([1]; 10 μM): 95%
Viability (%) ([1]; 10 μM): 86% and 103%
Viability (%) Mean ([1]; 25 μM): 101%
Viability (%) ([1]; 25 μM): 89% and 112%
Viability (%) Mean ([1]; 50 μM): 87%
Viability (%) ([1]; 50 μM): 81% and 93%
Viability (%) Mean ([1]; 100 μM): 97%
Viability (%) ([1]; 100 μM): 86% and 108%
Viability (%) Mean ([1]; 250 μM): 96%
Viability (%) ([1]; 250 μM): 91% and 102%
inhibition at 100 µM (PGE2; Homo sapiens, NHEK): 74%
Cytokine [pg/mL] PGE2 Mean (PGE2): 507 pg/mL
PGE2 % stim. control (PGE2): 32%
Cytokine [pg/mL] PGE2 (PGE2; single values): 582 pg/mL and 431 pg/mL
Procollagen I % Control (procollagen I): 118%
Procollagen I Mean (procollagen I): 1968 ng/mL
Procollagen I (procollagen I; single values): 1929 ng/mL and 2007 ng/mL
